Test systems include SK-MEL-28 melanoma; NCI-H460 lung; UO-31 renal; KM12 colon; SR leukemia; SK-OV-3 ovarian; UACC-257 melanoma; LOX IMVI melanoma; MALME-3M melanoma; NCI/ADR-RES ovarian.
Assay in all cases: growth of human tumour cells (NCI), 48 h

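Five compound concentrations were applied to cells in 96-well plates for 48 hours; endpoints were derived by simple linear interpolation of the resulting dose-response curve. GI50 = concentration required for 50% inhibition of growth. Definition used: TGI = concentration required for complete inhibition of growth.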

As to `CC(CC(=O)Nc1ccc(NC(=O)CC(C)N=NC(N)=O)cc1)N=NC(N)=O` (stereo not given), the TGI with SK-MEL-28 melanoma is > 100 µM; in the assay with NCI-H460 lung, > 100 µM; with UO-31 renal, > 100 µM; in the assay with KM12 colon, > 100 µM; with SR leukemia, 48.4 µM; in the assay with SK-OV-3 ovarian, > 100 µM. The TGI is > 100 µM in the assay on UACC-257 melanoma, 79.8 µM in the assay on LOX IMVI melanoma and > 100 µM in the assay with MALME-3M melanoma.

With `CC(=O)OC1=C(CC(C)(C)C)C(=O)c2ccccc2C1=O`, the TGI was > 100 µM with SK-MEL-28 melanoma; 79.3 µM in the assay on NCI-H460 lung; > 100 µM with UO-31 renal; > 100 µM in the assay with KM12 colon; 50.7 µM with SR leukemia; 85.3 µM in the assay with NCI/ADR-RES ovarian. Also, the TGI in the assay on SK-OV-3 ovarian is 66.2 µM; in the assay on UACC-257 melanoma, > 100 µM; with LOX IMVI melanoma, > 100 µM.

`NC(=O)c1nc(-c2ccc(Cl)c(Cl)c2)nc2ccccc12`: the TGI in the assay with SK-MEL-28 melanoma is > 40.9 µM; in the assay on NCI-H460 lung, > 100 µM; in the assay on UO-31 renal, > 100 µM; in the assay on KM12 colon, > 100 µM; with SR leukemia, > 100 µM; in the assay on SK-OV-3 ovarian, > 27.3 µM. The TGI was > 100 µM in the assay with UACC-257 melanoma, > 100 µM in the assay with LOX IMVI melanoma and 30 µM with MALME-3M melanoma.

In the case of `CCCCCC/C(CC(=O)CCC(=O)NCCc1ccccc1)=N\Nc1ccc([N+](=O)[O-])cc1[N+](=O)[O-]`, the TGI in the assay with SK-MEL-28 melanoma was > 100 µM; in the assay on NCI-H460 lung, > 100 µM; in the assay with UO-31 renal, > 100 µM; in the assay on KM12 colon it was > 100 µM; in the assay with SR leukemia it was 67.7 µM; with SK-OV-3 ovarian, > 100 µM. The TGI in the assay on UACC-257 melanoma, in the assay on LOX IMVI melanoma and with MALME-3M melanoma was > 100 µM in each case.

With `C/C(=N\Nc1n[nH]c(=S)n1N)c1c(O)cc(C)oc1=O`, the TGI in the assay on SK-MEL-28 melanoma, with NCI-H460 lung, in the assay with UO-31 renal, in the assay with KM12 colon, in the assay with SR leukemia and in the assay with SK-OV-3 ovarian was > 100 µM in each case. Further, the TGI with UACC-257 melanoma, with LOX IMVI melanoma and in the assay with MALME-3M melanoma was > 100 µM in each case.

Take `COC(=O)C(/C(=N\O)C(=O)Nc1ccc(Br)cc1)c1nc2ccccc2[nH]c1=O` (stereo not given): the TGI is > 100 µM with SK-MEL-28 melanoma; > 100 µM with NCI-H460 lung; > 100 µM in the assay with UO-31 renal; > 100 µM with KM12 colon; 40.5 µM with SR leukemia; > 100 µM with SK-OV-3 ovarian. Moreover, the TGI in the assay on UACC-257 melanoma is > 100 µM; with LOX IMVI melanoma, 41.6 µM; in the assay with MALME-3M melanoma, > 100 µM.

Take `O=C(CCc1cc(-c2ccc(F)cc2)n[nH]1)N(Cc1ccccc1)Cc1ccccc1`: the TGI was > 100 µM in the assay on SK-MEL-28 melanoma; > 100 µM in the assay with NCI-H460 lung; > 100 µM with UO-31 renal; > 100 µM in the assay on KM12 colon; 81.1 µM in the assay with SR leukemia; > 100 µM in the assay on SK-OV-3 ovarian. Besides, the TGI in the assay on UACC-257 melanoma, in the assay on LOX IMVI melanoma and in the assay on MALME-3M melanoma was > 100 µM throughout.

With `C[C@H]1CCC2C(OC(=O)[C@@H]2CN(C)C)[C@]2(C)C(=O)C=CC12O` (stereo not given in full), the TGI came out at 8.35 µM in the assay on SK-MEL-28 melanoma; 28.7 µM with NCI-H460 lung; 30.8 µM in the assay with UO-31 renal; 15.1 µM in the assay with KM12 colon; 11.2 µM with SR leukemia; 38.6 µM in the assay on SK-OV-3 ovarian. The TGI with UACC-257 melanoma was 23.6 µM; in the assay with LOX IMVI melanoma it was 17.8 µM; with MALME-3M melanoma, 16.7 µM.

On to `COc1ccc(F)cc1-c1ccnc2[nH]c(C3=CCN(C4CCC(CC(=O)O)CC4)CC3)cc12` (stereo not given), for which the GI50 in the assay with SK-MEL-28 melanoma was 0.152 µM; in the assay with NCI-H460 lung, 0.236 µM; with UO-31 renal, 0.205 µM; in the assay on KM12 colon, 0.0953 µM; with SR leukemia, 0.0295 µM; with NCI/ADR-RES ovarian, 2.15 µM. Besides, the GI50 with SK-OV-3 ovarian is 1.2 µM; with UACC-257 melanoma, 0.307 µM; in the assay on MALME-3M melanoma it was 0.206 µM. Besides, the TGI was 0.989 µM in the assay with SK-MEL-28 melanoma; > 100 µM with NCI-H460 lung; 0.625 µM with UO-31 renal; > 100 µM with KM12 colon; > 100 µM with SR leukemia; > 100 µM in the assay on NCI/ADR-RES ovarian. The figures for the TGI in the assay on SK-OV-3 ovarian, with UACC-257 melanoma and in the assay on MALME-3M melanoma were > 100 µM, > 100 µM and 0.563 µM, respectively.

On to `N#CC(C#N)C(c1ccccc1)c1ccccc1`, for which the TGI in the assay on SK-MEL-28 melanoma, in the assay on NCI-H460 lung, in the assay on UO-31 renal, with KM12 colon, with SR leukemia and in the assay on SK-OV-3 ovarian was > 100 µM in each case. The TGI in the assay on UACC-257 melanoma, in the assay with LOX IMVI melanoma and in the assay with MALME-3M melanoma was > 100 µM in each case.

As for `CCOC(=O)CC(C)C1(C=O)CCCCC1=O` (stereo not given), the TGI in the assay with SK-MEL-28 melanoma is > 100 µM; in the assay with NCI-H460 lung it was > 100 µM; in the assay with UO-31 renal it was > 100 µM; in the assay with KM12 colon, > 100 µM; in the assay on SR leukemia, 49.8 µM; in the assay on SK-OV-3 ovarian, > 100 µM. The TGI is > 100 µM with UACC-257 melanoma, 34 µM with LOX IMVI melanoma and > 100 µM with MALME-3M melanoma.

`COC(=O)[C@@H](C)C[C@H](Cc1ccccc1)NC(=O)c1csc([C@@H](C[C@H](C(C)C)N(C)C(=O)[C@@H](NC(=O)[C@H]2CCCCN2C)C(C(F)(F)F)C(F)(F)F)OC(C)=O)n1`: the GI50 in the assay on SK-MEL-28 melanoma was 0.102 µM; in the assay on NCI-H460 lung it was 0.0576 µM; in the assay on UO-31 renal, 0.224 µM; with KM12 colon it was 0.0448 µM; in the assay with SR leukemia it was 0.00743 µM; in the assay on NCI/ADR-RES ovarian it was 0.346 µM. The figures for the GI50 with SK-OV-3 ovarian, in the assay on LOX IMVI melanoma and in the assay with MALME-3M melanoma were 0.07 µM, 0.053 µM and 0.0437 µM, respectively. In addition, the TGI in the assay on SK-MEL-28 melanoma is > 16.7 µM; with NCI-H460 lung it was > 16.7 µM; with UO-31 renal it was > 16.7 µM; with KM12 colon, 13.9 µM; in the assay on SR leukemia it was > 16.7 µM; with NCI/ADR-RES ovarian, > 16.7 µM. In addition, the TGI with SK-OV-3 ovarian, with LOX IMVI melanoma and with MALME-3M melanoma was > 16.7 µM in each case.

With `Nc1ccn(C2CC3OCC3O2)c(=O)n1` (stereo not given), the TGI in the assay with SK-MEL-28 melanoma, in the assay on NCI-H460 lung, with UO-31 renal, in the assay on KM12 colon, in the assay on SR leukemia and in the assay on NCI/ADR-RES ovarian was > 100 µM each time. The TGI in the assay with SK-OV-3 ovarian, in the assay on UACC-257 melanoma and in the assay on LOX IMVI melanoma was > 100 µM each time.

These data come from PubChem BioAssay (NCI).
